Measured values from patent US20240408169A1 (priority 2023, published 2024).
Where two headings read alike, the source gives them in different places. *1 amine or outer side, *2 acyl side, *3 side chain or, on linkers, in order; H or OH if unused. Where a SMILES comes first, the peptide text is derived from it. Bridges are numbered along the chain shown (N, C = ends). [ ]: non-standard residue; d: D form. The star is where a group is joined. X124 = CC(C)C(=O)N1[C@@H]2CC[C@H]1C=C(c1ccc(F)cc1C[C@@H](C(=O)[*:2])N(C)[*:1])C2; NMePhe(2-(4-MorPh),5-Cl) = CN[C@@H](Cc1cc(Cl)ccc1-c1ccc(N2CCOCC2)cc1)C(=O)O; X169 = CN([C@@H](Cc1cc(Cl)ccc1-c1ccc(-c2cnn3c2COCC3)cc1)C(=O)[*:2])[*:1]; X119 = CC(=O)N1C2C=C(c3ccc(F)cc3C[C@@H](C(=O)[*:2])N(C)[*:1])CC1COC2; NMeAla(5-Cl-2-cPrO-3-pyridyl) = CN[C@@H](Cc1cc(Cl)cnc1OC1CC1)C(=O)O; X172 = CC(=O)N1CC=C(c2ccc(F)cc2C[C@@H](C(=O)[*:2])N(C)[*:1])CC1; X166 = CN([C@@H](Cc1cc(F)ccc1C1=CC2COCC(C1)N2)C(=O)[*:2])[*:1]; X170 = CN([C@@H](Cc1cc(Cl)ccc1-c1ccc2nonc2c1)C(=O)[*:2])[*:1]; NMe3Pal(2-OiBu,5-Cl) = CN[C@@H](Cc1cc(Cl)cnc1OCC(C)C)C(=O)O; NMehhhLys(Me) = CN([C@@H](CCCCCCCN(C)[*:3])C(=O)[*:2])[*:1]; NMe3Pal(2-OiPr,5-Cl) = CN[C@@H](Cc1cc(Cl)cnc1OC(C)C)C(=O)O; X211 = Cc1ncc(-c2ccc(Cl)cc2C[C@@H](C(=O)[*:2])N(C)[*:1])s1; X22 = CN([C@@H](Cc1cc(Cl)ccc1-c1cnn(C)c1)C(=O)[*:2])[*:1]; NMe(hhhLys) = CN([C@@H](CCCCCCCN[*:3])C(=O)[*:2])[*:1]; cBuCO(3,3-F2-1-CF3) = O=C(C1(C(F)(F)F)CC(F)(F)C1)*; NMePhe(2,5-Cl2) = CN[C@@H](Cc1cc(Cl)ccc1Cl)C(=O)O; X25 = CCOc1ncc(Cl)cc1C[C@@H](C(=O)[*:2])N(C)[*:1]; Pro(trans-4-F) = O=C(O)[C@@H]1C[C@@H](F)CN1; X201 = O=C(C1(C(F)F)CC(F)(F)C1)*; Gly(cPr) = N[C@H](C(=O)O)C1CC1

What was measured:
CyclinB1/CDK1 = target: T1, CyclinB1/CDK1 (Homo sapiens, UniProt P14635); experiment: Fluorescence Polarization (FP) competitive binding assay, Cyclin B1/Cdk1;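 further: fluorescence polarization read after equilibration at room temperature, with IC50 taken from serially diluted dose-response curves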
T1 construct: purchased Eurofins, discovery 14-450

CyclinE1/CDK2 = target: T2, CyclinE1/CDK2 (Homo sapiens, UniProt P24864); experiment: Fluorescence Polarization (FP) competitive binding assay, Cyclin E1/Cdk2;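 further: readings taken after two-hour equilibration at room temperature in HEPES buffer with NaCl, DTT, NP-40 and BSA, IC50 fitted from eight-concentration serial dilution series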
T2 construct: purchased Eurofins, discovery 14-475

WI-38 cells = experiment: MTT proliferation assay, WI-38; type: cell-based; details: 3 days compound exposure, 1:3 serial dilution starting at 10 μM;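 further: Eight- or ten-point dilution series, with exposure length chosen to span about three to four cell doublings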
NCI-H1048 cells = experiment: MTT proliferation assay, NCI-H1048; type: cell-based; details: 5 days compound exposure, 1:3 serial dilution starting at 10 μM;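 further: Dose-response in 96-well plates over 8 or 10 concentration points, with exposure spanning 3-4 cell doublings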
OVCAR3 cells = experiment: MTT proliferation assay, OVCAR3; type: cell-based; details: 5 days compound exposure, 1:3 serial dilution starting at 10 μM;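 further: compound given as an 8- or 10-point series, one day after plating, with exposure covering roughly 3-4 cell doublings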
CyclinA2/CDK2 = target: T3, CyclinA2/CDK2 (Homo sapiens, UniProt P20248); experiment: Fluorescence Polarization (FP) competitive binding assay, Cyclin A2/Cdk2; details: 8 nM Cyclin A2/Cdk2, 2 nM FAM probe; average of 2-3 independent experiments; read-out: Cyclin A FP IC50;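 further: plates equilibrated two hours at room temperature before polarization reading, IC50 fitted from eight-concentration compound titration curves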
T3 construct: purchased CRELUX Protein Services

[1] = read-out: Cyclin B FP IC50; 10 nM Cyclin B1/Cdk1, 2 nM FAM probe; average of 2-3 independent experiments
[2] = 10 nM Cyclin B1/Cdk1, 2 nM FAM probe; average of 2-3 independent experiments; read-out: Cyclin B FP IC50
[3] = 10 nM Cyclin E1/Cdk2, 2 nM FAM probe, average of 2-3 independent experiments, read-out: Cyclin E FP IC50

Compound	IC50 (CyclinB1/CDK1; [1])	IC50 (CyclinE1/CDK2)	GI50 (WI-38 cells)	GI50 (NCI-H1048 cells)	GI50 (OVCAR3 cells)	IC50 (CyclinB1/CDK1; [2])	IC50 (CyclinE1/CDK2; [3])	IC50 (CyclinA2/CDK2)
CCOc1ncc(Cl)cc1C[C@H]1C(=O)N(C)CCCCCCC[C@H](N(C)C(=O)[C@@H](NC(=O)[C@@H]2C[C@@H](F)CN2C(=O)C2(C(F)(F)F)CC(F)(F)C2)C2CC2)C(=O)N[C@@H](CC(C)C)C(=O)N1C [Example 225] ({cBuCO(3,3-F2-1-CF3)}-[Pro(trans-4-F)][Gly(cPr)][NMehhhLys(Me)]L[X25]; lactam 3-C)	20 nM	190 nM	8.53 µM	20 nM	30 nM			
CC(C)COc1ncc(Cl)cc1C[C@H]1C(=O)N(C)CCCCCCC[C@H](N(C)C(=O)[C@@H](NC(=O)[C@@H]2C[C@@H](F)CN2C(=O)C2(C(F)(F)F)CC(F)(F)C2)C2CC2)C(=O)N[C@@H](CC(C)C)C(=O)N1C [Example 228] ({cBuCO(3,3-F2-1-CF3)}-[Pro(trans-4-F)][Gly(cPr)][NMehhhLys(Me)]L[NMe3Pal(2-OiBu,5-Cl)]; lactam 3-C)	20 nM	250 nM	9.54 µM	60 nM	80 nM			
Cc1ncc(-c2ccc(Cl)cc2C[C@H]2C(=O)N(C)CCCCCCC[C@H](N(C)C(=O)[C@@H](NC(=O)[C@@H]3C[C@@H](F)CN3C(=O)C3(C(F)(F)F)CC(F)(F)C3)C3CC3)C(=O)N[C@@H](CC(C)C)C(=O)N2C)s1 [Example 75] ({cBuCO(3,3-F2-1-CF3)}-[Pro(trans-4-F)][Gly(cPr)][NMehhhLys(Me)]L[X211]; lactam 3-C)			5.89 µM	10 nM	20 nM	20 nM	440 nM	
CC(C)C[C@@H]1NC(=O)[C@@H](N(C)C(=O)[C@@H](NC(=O)[C@@H]2C[C@@H](F)CN2C(=O)C2(C(F)(F)F)CC(F)(F)C2)C2CC2)CCCCCCCNC(=O)[C@H](Cc2cc(Cl)ccc2-c2cnn(C)c2)N(C)C1=O [Example 66] ({cBuCO(3,3-F2-1-CF3)}-[Pro(trans-4-F)][Gly(cPr)][NMe(hhhLys)]L[X22]; lactam 3-C)			12.9 µM	10 nM	10 nM			
CC(C)C[C@@H]1NC(=O)[C@@H](N(C)C(=O)[C@@H](NC(=O)[C@@H]2C[C@@H](F)CN2C(=O)C2(C(F)(F)F)CC(F)(F)C2)C2CC2)CC=CCCCCNC(=O)[C@H](Cc2cc(Cl)ccc2Cl)N(C)C1=O (single isomer, unassigned) [Example 6-P2]			15.6 µM	40 nM	70 nM	20 nM	240 nM	
CC(C)C[C@@H]1NC(=O)[C@@H](N(C)C(=O)[C@@H](NC(=O)[C@@H]2C[C@@H](F)CN2C(=O)C2(C(F)(F)F)CC(F)(F)C2)C2CC2)CCCCCCCN(C)C(=O)[C@H](Cc2cc(Cl)ccc2Cl)N(C)C1=O [Example 25] ({cBuCO(3,3-F2-1-CF3)}-[Pro(trans-4-F)][Gly(cPr)][NMehhhLys(Me)]L[NMePhe(2,5-Cl2)]; lactam 3-C)			8.07 µM	30 nM	40 nM	20 nM	230 nM	
CC(C)C[C@@H]1NC(=O)[C@@H](N(C)C(=O)[C@@H](NC(=O)[C@@H]2C[C@@H](F)CN2C(=O)C2(C(F)(F)F)CC(F)(F)C2)C2CC2)CCCCCCCN(C)C(=O)[C@H](Cc2cc(Cl)cnc2OC(C)C)N(C)C1=O [Example 120] ({cBuCO(3,3-F2-1-CF3)}-[Pro(trans-4-F)][Gly(cPr)][NMehhhLys(Me)]L[NMe3Pal(2-OiPr,5-Cl)]; lactam 3-C)			9.28 µM	100 nM	130 nM	20 nM	210 nM	
CC(C)C[C@@H]1NC(=O)[C@@H](N(C)C(=O)[C@@H](NC(=O)[C@@H]2C[C@@H](F)CN2C(=O)C2(C(F)(F)F)CC(F)(F)C2)C2CC2)CCCCCCCN(C)C(=O)[C@H](Cc2cc(Cl)cnc2OC2CC2)N(C)C1=O [Example 105] ({cBuCO(3,3-F2-1-CF3)}-[Pro(trans-4-F)][Gly(cPr)][NMehhhLys(Me)]L[NMeAla(5-Cl-2-cPrO-3-pyridyl)]; lactam 3-C)			18.8 µM	20 nM	30 nM			
CC(C)C[C@@H]1NC(=O)[C@@H](N(C)C(=O)[C@@H](NC(=O)[C@@H]2C[C@@H](F)CN2C(=O)C2(C(F)(F)F)CC(F)(F)C2)C2CC2)CCCCCCCN(C)C(=O)[C@H](Cc2cc(F)ccc2C2=CC3COCC(C2)N3)N(C)C1=O (stereo partly drawn) [Example 166] ({cBuCO(3,3-F2-1-CF3)}-[Pro(trans-4-F)][Gly(cPr)][NMehhhLys(Me)]L[X166]; lactam 3-C)				40 nM	100 nM	20 nM	2300 nM	60 nM
CC(=O)N1C2C=C(c3ccc(F)cc3C[C@H]3C(=O)N(C)CCCCCCC[C@H](N(C)C(=O)[C@@H](NC(=O)[C@@H]4C[C@@H](F)CN4C(=O)C4(C(F)(F)F)CC(F)(F)C4)C4CC4)C(=O)N[C@@H](CC(C)C)C(=O)N3C)CC1COC2 (stereo partly drawn) [Example 124] ({cBuCO(3,3-F2-1-CF3)}-[Pro(trans-4-F)][Gly(cPr)][NMehhhLys(Me)]L[X119]; lactam 3-C)				20 nM	20 nM	20 nM	540 nM	20 nM
CC(C)C[C@@H]1NC(=O)[C@@H](N(C)C(=O)[C@@H](NC(=O)[C@@H]2C[C@@H](F)CN2C(=O)C2(C(F)(F)F)CC(F)(F)C2)C2CC2)CC=CCCCCN(C)C(=O)[C@H](Cc2cc(Cl)ccc2Oc2ncccn2)N(C)C1=O [Example 153]				110 nM	140 nM	20 nM	1000 nM	470 nM
CC(C)C[C@@H]1NC(=O)[C@@H](NC(=O)[C@@H](NC(=O)[C@@H]2C[C@@H](F)CN2C(=O)C2(C(F)(F)F)CC(F)(F)C2)C2CC2)CC=CCCCCNC(=O)[C@H](Cc2cc(Cl)ccc2Cl)N(C)C1=O [Example 4]				120 nM	60 nM	20 nM	100 nM	90 nM
CC(C)C[C@@H]1NC(=O)[C@@H](N(C)C(=O)[C@@H](NC(=O)[C@@H]2C[C@@H](F)CN2C(=O)C2(C(F)(F)F)CC(F)(F)C2)C2CC2)CCCCCCCN(C)C(=O)[C@H](Cc2cc(Cl)ccc2-c2ccc3nonc3c2)N(C)C1=O [Example 170] ({cBuCO(3,3-F2-1-CF3)}-[Pro(trans-4-F)][Gly(cPr)][NMehhhLys(Me)]L[X170]; lactam 3-C)				130 nM	200 nM	20 nM	2220 nM	50 nM
CC(=O)N1CC=C(c2ccc(F)cc2C[C@H]2C(=O)NCCCCCCC[C@H](N(C)C(=O)[C@@H](NC(=O)[C@@H]3C[C@@H](F)CN3C(=O)C3(C(F)(F)F)CC(F)(F)C3)C3CC3)C(=O)N[C@@H](CC(C)C)C(=O)N2C)CC1 [Example 217] ({cBuCO(3,3-F2-1-CF3)}-[Pro(trans-4-F)][Gly(cPr)][NMe(hhhLys)]L[X172]; lactam 3-C)				10 nM	20 nM	20 nM	760 nM	30 nM
CC(C)C[C@@H]1NC(=O)[C@@H](N(C)C(=O)[C@@H](NC(=O)[C@@H]2C[C@@H](F)CN2C(=O)C2(C(F)(F)F)CC(F)(F)C2)C2CC2)CCCCCCCN(C)C(=O)[C@H](Cc2cc(Cl)ccc2-c2ccc(-c3cnn4c3COCC4)cc2)N(C)C1=O [Example 378] ({cBuCO(3,3-F2-1-CF3)}-[Pro(trans-4-F)][Gly(cPr)][NMehhhLys(Me)]L[X169]; lactam 3-C)				10 nM	20 nM	20 nM	1120 nM	20 nM
CC(C)C[C@@H]1NC(=O)[C@@H](N(C)C(=O)[C@@H](NC(=O)[C@@H]2C[C@@H](F)CN2C(=O)C2(C(F)(F)F)CC(F)(F)C2)C2CC2)CC=CCCCCNC(=O)[C@H](Cc2cc(F)ccc2-c2cnn(C)c2)N(C)C1=O [Example 195]				10 nM	10 nM	20 nM	180 nM	40 nM
CC(C)C[C@@H]1NC(=O)[C@@H](N(C)C(=O)[C@@H](NC(=O)[C@@H]2C[C@@H](F)CN2C(=O)C2(C(F)(F)F)CC(F)(F)C2)C2CC2)CCCCCCCN(C)C(=O)[C@H](Cc2cc(F)ccc2C2=C[C@@H]3CC[C@H](C2)N3C(=O)C(C)C)N(C)C1=O [Example 317] ({cBuCO(3,3-F2-1-CF3)}-[Pro(trans-4-F)][Gly(cPr)][NMehhhLys(Me)]L[X124]; lactam 3-C)				10 nM	10 nM	20 nM	250 nM	30 nM
CC(C)C[C@@H]1NC(=O)[C@@H](N(C)C(=O)[C@@H](NC(=O)[C@@H]2C[C@@H](F)CN2C(=O)C2(C(F)F)CC(F)(F)C2)C2CC2)CCCCCCCN(C)C(=O)[C@H](Cc2cc(Cl)ccc2-c2ccc(N3CCOCC3)cc2)N(C)C1=O [Example 350] (X201-[Pro(trans-4-F)][Gly(cPr)][NMehhhLys(Me)]L[NMePhe(2-(4-MorPh),5-Cl)]; lactam 3-C)				10 nM	10 nM	20 nM	880 nM	20 nM
CC[C@H](NC(=O)[C@@H]1C[C@@H](F)CN1C(=O)C1(C(F)(F)F)CC1)C(=O)N[C@H]1CC=CCCCCN(C)C(=O)[C@H](Cc2cc(Cl)ccc2Cl)N(C)C(=O)[C@H](CC(C)C)NC1=O [Example 13]				70 nM	240 nM	20 nM	100 nM	100 nM
